Assay results reported in PMC8279414, “Discovery and Synthesis of a Pyrimidine-Based Aurora Kinase Inhibitor to Reduce Levels of MYC Oncoproteins” (Journal of Medicinal Chemistry, 2021).
Read-outs that look alike come from different tables or passages of the source.

Legend:
[1] = system: NCI-H446 xenograft tumors; assay: In vivo xenograft tumor growth inhibition; parameters: species or system mice
Experimental: (§1) Male athymic nu/nu nude mice (BioLASCO, Taiwan) 6 weeks old were housed in sterile cages maintained under 12 h light/dark cycles with controlled temperature and humidity. Mice were inoculated subcutaneously with 1 × 10^6 NCI–H446 cells (ATCC@ HTB-171) resuspended in saline mixed with 50% Matrigel matrix (Corning, USA). The sizes of the xenografted tumors were measured by a digital caliper (GMC-190; Goldsun Electronics Co.) and calculated using the formula: tumor volume (mm^3) = length × (width)2/2. Body weight and tumor size were measured at least twice a week. When the xenograft tumor reached ≥200 mm^3 in size, mice were intravenous or orally administered with the vehicle (5% dimethylacetamide/95% PEG400) or the compounds on a 5-on-2-off dosing regimen for 2–4 weeks. Tumor growth was analyzed for a statistically significant difference using ANOVA, followed by the Student–Newman–Keuls test. P < 0.05 was considered a significant difference between groups.

[2] = system: NCI-H446; assay: Cell proliferation inhibition assay (PrestoBlue); type: cell-based; details: Homo sapiens, NCI-H446, 72 h; read-out: Compound 13 IC50 (half-proliferation inhibition concentration)
Description: (§2) SCLC is an aggressive malignancy that accounts for around 10–15% of all lung cancers, for which no targeted therapy is currently available.[29],[30] SCLC cells are characterized by rapid proliferation, universal RB1 and TP53 inactivation, and high rates of MYC-family amplification.[31] A recent study of MYC amplification in 77 formalin-fixed paraffin-embedded SCLC tumor samples using chromogenic in situ hybridization identified amplification of the MYC-family oncogenes in 20% of the tumors.[32],[33] Thus, we evaluated the growth-inhibitory effects of 13 on nine different SCLC cell lines: five with cMYC amplification, one with MYCN amplification, one with MYCL amplification, and two with no MYC-family amplification.
(§3) The efficacy of the compounds as inhibitors of cancer cell proliferation was assessed using PrestoBlue Cell Viability Reagent (ThermoFisher Scientific, USA). Cells were seeded at a density of 5000–10,000 cells per well in 96-well plates. After 24 h, cells were treated with each compound at various concentrations (0–10 μM). IC50 values were computed based on a triplicate, eight-point titration. After 72 h of drug treatment, 10 μL of PrestoBlue Cell Viability Reagent was added to each well, and fluorescence signals were collected using a Wallac Vector 1420 multilabel counter (PerkinElmer, USA).

[3] = system: NCI-H82; assay: Cell proliferation inhibition assay (PrestoBlue); type: cell-based; details: Homo sapiens, NCI-H82, 72 h; read-out: Compound 13 IC50 (half-proliferation inhibition concentration)
Description: as §2, §3

[4] = system: NCI-H211; assay: Cell proliferation inhibition assay (PrestoBlue); type: cell-based; details: Homo sapiens, NCI-H211, 72 h; read-out: Compound 13 IC50 (half-proliferation inhibition concentration)
Description: as §2, §3

[5] = system: NCI-H524; assay: Cell proliferation inhibition assay (PrestoBlue); type: cell-based; details: Homo sapiens, NCI-H524, 72 h; read-out: Compound 13 IC50 (half-proliferation inhibition concentration)
Description: as §2, §3

[6] = system: NCI-H2171; assay: Cell proliferation inhibition assay (PrestoBlue); type: cell-based; details: Homo sapiens, NCI-H2171, 72 h; read-out: Compound 13 IC50 (half-proliferation inhibition concentration)
Description: as §2, §3

[7] = system: NCI-H146; assay: Cell proliferation inhibition assay (PrestoBlue); type: cell-based; details: NCI-H146 (MYC-unamplified), read-out: Compound 13 IC50 (half-proliferation inhibition concentration)
Description: as §2, §3

[8] = target: T1, human Aurora A (amino acids 123–401) (Homo sapiens, UniProt O14965); assay: In vitro inhibition of Aurora A kinase activity (Kinase-Glo Plus Luminescent Kinase assay, ATP consumption); type: biochemical; details: mean of 2–3 independent determinations ± SD; >100 = inhibition < 50% at 100 nM
T1 construct: N-terminal truncated human Aurora A (amino acids 123–401); GST; made in house; host or cells: Sf9 insect cells
T1 sequence (O14965 123-401): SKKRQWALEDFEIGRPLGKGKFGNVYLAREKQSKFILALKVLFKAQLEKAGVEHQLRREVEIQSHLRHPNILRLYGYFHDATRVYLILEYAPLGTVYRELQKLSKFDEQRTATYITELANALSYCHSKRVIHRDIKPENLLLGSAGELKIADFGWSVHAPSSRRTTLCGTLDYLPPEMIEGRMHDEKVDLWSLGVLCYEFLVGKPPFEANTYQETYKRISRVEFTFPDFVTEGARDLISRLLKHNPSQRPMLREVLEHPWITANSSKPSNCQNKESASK
Experimental: The inhibitory potency of the newly synthesized small molecules against Aurora A was first measured in ATP consumption assays using purified Aurora A protein.
The efficacy of the compounds as inhibitors of Aurora A kinase was assessed in vitro using the Kinase-Glo Plus Luminescent Kinase assay (Promega, USA), as described previously.[45] […] The resulting mixture was incubated at 25 °C for 20 min. A 70 μL aliquot of the mixture was transferred to a black microtiter plate.

[9] = system: cMYC in NCI-H82; assay: Western blot analysis of cMYC protein level in NCI-H82 cells; type: cell-based; details: for NCI-H82 cMYC, relative protein level: 1.0 μM of compound, mean ± SD, triplicate
Experimental: (§4) Cancer cells were treated with each of the compounds at different compound concentrations. […] Each lysate was separated by sodium dodecyl sulfate polyacrylamide gel electrophoresis (SDS-PAGE), transferred to polyvinylidene fluoride (PVDF, Millipore, USA) membrane, and blotted with antibodies. […] After the blotting (0.2% casein, 1% BSA, or 5% nonfat milk), membranes were washed with blotting buffer (0.2% casein in 1× PBS or 1× TBST), and corresponding alkaline phosphatase (AP)- or horseradish peroxidase (HRP)-conjugated secondary antibodies (Sigma-Aldrich) were added. The blots were developed by chemiluminescence (PerkinElmer, USA).

[10] = Body weight of xenograft mice during treatment; type: in vivo; details: IV 50 mg/kg, 5-on-2-off, during the treatment
Experimental: as §1

[11] = system: MYCN in SK-N-BE(2); assay: Western blot analysis of MYCN protein level in SK-N-BE(2) cells; type: cell-based; details: for SK-N-BE(2) MYCN, relative protein level: 1.0 μM of compound, mean ± SD, triplicate
Experimental: as §4

[12] = system: high-MYC expressing small-cell lung cancer (SCLC) cell lines; assay: Cell proliferation inhibition assay, cell lines not named singly; type: cell-based; details: high-MYC expressing / cMYC-amplified SCLC cell lines, 72 h
Description: as §2, §3

Row | SMILES | tumor growth inhibition ([1]; IV 50 mg/kg, 5-on-2-off dosing schedule, two weeks, nude mice) [%] | IC50 [2] [nM] | IC50 [3] [nM] | IC50 [4] [nM] | IC50 [5] [nM] | IC50 [6] [nM] | IC50 ([7]; Homo sapiens, NCI-H146, 72 h) [nM] | IC50 ([7]; 72 h) [nM] | IC50 [8] [nM] | reduction of cMYC level ([9]; 1.0 μM) [%] | NCI-H82 cMYC, relative protein level ([9]; 24 h) | effect on cMYC protein level in NCI-H82 ([9]; various concentrations, 24 h) | body weight change [10] | reduction of MYCN level ([11]; 1.0 μM) [%] | SK-N-BE(2) MYCN, relative protein level ([11]; 24 h) | effect on MYCN protein level in SK-N-BE(2) ([11]; various concentrations, 24 h) | IC50 [12] [nM] | anticancer activity in NCI-H446 xenograft tumor model ([1]; oral administration, 5-on-2-off regimen)
1 | CCN1CCN(c2cc(Nc3cc(C)[nH]n3)nc(N[C@H]3CCN(C(=O)c4ccc(Cl)cc4F)C3)n2)CC1 [Compound 13, (S)-(4-Chloro-2-fluorophenyl) (3-((4-(4-ethylpiperazin-1-yl)-6-((5-methyl-1H-pyrazol-3-yl)amino)pyrimidin-2-yl)amino)pyrrolidin-1-yl)methanone] | > 90 | 120 | 51.7 | 105 | 3.36 | 27.1 | 1180 | > 1000 | 38.6 ± 7 | > 50 | 0.475 ± 0.023 | dose-dependent loss | less than 5% | > 50 | 0.487 ± 0.066 | dose-dependent loss | < 200 | 
2 | CCOC(=O)n1nc(C)cc1Nc1cc(N2CCN(CC)CC2)nc(N[C@H]2CCN(C(=O)c3ccc(Cl)cc3F)C2)n1 [Compound 22, Ethyl (S)-5-((2-((1-(4-chloro-2-fluorobenzoyl)pyrrolidin-3-yl)amino)-6-(4-ethylpiperazin-1-yl)pyrimidin-4-yl)amino)-3-methyl-1H-pyrazole-1-carboxylate] |  |  |  |  |  |  |  |  |  |  |  |  |  |  |  |  |  | dose-dependent anticancer activity
3 | CCN1CCN(c2cc(Nc3cc(C)[nH]n3)nc(N[C@H]3CCN(C(=O)c4cc(F)c(Cl)cc4F)C3)n2)CC1 [Compound 16, (S)-(4-Chloro-2,5-difluorophenyl) (3-((4-(4-ethylpiperazin-1-yl)-6-((5-methyl-1H-pyrazol-3-yl)amino)pyrimidin-2-yl)amino)pyrrolidin-1-yl)methanone] |  |  |  |  |  |  |  |  | 50.9 ± 2.3 |  | 0.834 ± 0.121 |  |  |  | 0.792 ± 0.170 |  |  | 
